Experimental data as given in ChEMBL document CHEMBL1122093, “Preparation of the alpha and beta anomers of 9-(3,5-dideoxy-D-glycero-pent-4-enofuranosyl)adenine and their activity with leukemia L1210 cells in vitro” (1982).

How the values were obtained:
[1] = test system: L1210; assay: In vitro for the inhibitory activity against L1210 leukemia cells at a concentration 3.2x10 E -4 M; assay type: functional; conditions: Mus musculus
[2] = test system: L1210; assay: In vitro for the inhibitory activity against L1210 leukemia cells at a concentration 3.4x10 E -4 M; assay type: functional; conditions: Mus musculus

| SMILES | inhibition at 320 µM [1] [%] | inhibition at 340 µM [2] [%] |
| --- | --- | --- |
| C=C1C[C@@H](O)[C@H](n2cnc3c(N)ncnc32)O1 | 50 | – |
| C=C1C[C@@H](O)[C@@H](n2cnc3c(N)ncnc32)O1 | – | 50 |
